From ChEMBL document CHEMBL2073986, “Impaired organic anion transport in kidney and choroid plexus of organic anion transporter 3 (Oat3 (Slc22a8)) knockout mice” (J Biol Chem, 2002)

Target: T1, Organic anion transporter 3 (Mus musculus, UniProt O88909)
T1 sequence (O88909 whole entry): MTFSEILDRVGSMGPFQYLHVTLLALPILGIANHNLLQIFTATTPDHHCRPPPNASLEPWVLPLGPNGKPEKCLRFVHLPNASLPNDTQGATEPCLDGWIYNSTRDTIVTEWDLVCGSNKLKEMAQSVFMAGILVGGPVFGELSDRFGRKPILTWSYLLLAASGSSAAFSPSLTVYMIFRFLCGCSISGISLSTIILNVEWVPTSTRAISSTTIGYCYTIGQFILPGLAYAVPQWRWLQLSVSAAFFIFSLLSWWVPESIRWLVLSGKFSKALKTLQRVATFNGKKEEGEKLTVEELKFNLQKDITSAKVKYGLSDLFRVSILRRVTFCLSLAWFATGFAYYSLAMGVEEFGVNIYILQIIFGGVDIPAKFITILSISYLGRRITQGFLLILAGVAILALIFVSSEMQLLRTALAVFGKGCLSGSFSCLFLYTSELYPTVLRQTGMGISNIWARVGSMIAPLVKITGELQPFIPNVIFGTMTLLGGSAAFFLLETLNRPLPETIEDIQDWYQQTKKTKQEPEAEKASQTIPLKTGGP
Test: TP_TRANSPORTER: uptake in Xenopus laevis oocytes
Type: functional, cell-based
Conditions: oocyte

Activity	SMILES
substrate [+]	C[C@]12CC[C@@H]3c4ccc(OS(=O)(=O)O)cc4CC[C@H]3[C@@H]1CCC2=O [ESTRONE SULFURIC ACID]
substrate [+]	Nc1ccc(C(=O)NCC(=O)O)cc1 [AMINOHIPPURIC ACID]
